Measured values taken from patent publication US20110015162A1, “15,16-Methylene-17-hydroxy-19-nor-21-carboxylic acid-steroid Y-lactone derivative, use thereof and medicinal products containing the derivative” (Bayer Schering Pharma Aktiengesellschaft, priority 2007, published 2011).

Columns and labels:
[1] = biological target: T1, androgen receptor (Homo sapiens, UniProt P10275); experiment: Androgen receptor binding test; design: expressed in transfected cells; conditions: reference substance 3H-testosterone
T1 sequence (P10275 1-920): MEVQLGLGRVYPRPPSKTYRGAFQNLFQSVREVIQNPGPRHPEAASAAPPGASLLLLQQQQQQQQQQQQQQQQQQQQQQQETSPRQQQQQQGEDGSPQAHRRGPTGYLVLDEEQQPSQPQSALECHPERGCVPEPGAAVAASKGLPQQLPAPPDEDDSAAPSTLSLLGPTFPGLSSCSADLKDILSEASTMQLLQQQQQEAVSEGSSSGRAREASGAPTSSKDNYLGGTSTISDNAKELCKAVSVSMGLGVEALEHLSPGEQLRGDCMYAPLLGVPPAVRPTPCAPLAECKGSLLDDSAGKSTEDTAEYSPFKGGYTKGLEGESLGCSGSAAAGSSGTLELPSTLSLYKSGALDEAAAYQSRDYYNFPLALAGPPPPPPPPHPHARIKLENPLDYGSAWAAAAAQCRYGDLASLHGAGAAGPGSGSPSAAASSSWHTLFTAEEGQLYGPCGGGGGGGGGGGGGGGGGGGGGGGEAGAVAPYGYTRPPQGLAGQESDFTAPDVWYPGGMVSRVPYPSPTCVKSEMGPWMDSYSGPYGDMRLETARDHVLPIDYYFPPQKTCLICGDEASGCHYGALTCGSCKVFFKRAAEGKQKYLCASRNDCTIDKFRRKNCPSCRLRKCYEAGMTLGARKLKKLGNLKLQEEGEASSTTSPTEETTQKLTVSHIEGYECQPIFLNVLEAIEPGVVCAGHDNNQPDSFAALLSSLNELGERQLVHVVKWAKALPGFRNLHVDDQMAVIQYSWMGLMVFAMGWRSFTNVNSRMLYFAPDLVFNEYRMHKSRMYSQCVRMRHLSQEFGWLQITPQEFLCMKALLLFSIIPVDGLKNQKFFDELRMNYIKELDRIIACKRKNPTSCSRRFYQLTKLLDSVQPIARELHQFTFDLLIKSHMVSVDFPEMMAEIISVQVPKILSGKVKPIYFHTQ

[2] = biological target: T2, mineralocorticoid receptor (Homo sapiens, UniProt P08235); experiment: Mineralocorticoid receptor binding test; design: made in house; host or cells: Hi5 insect cells (cytosol); conditions: reference substance 3H-aldosterone, cytosol from MR-expressing insect cells (Hi5)
T2 sequence (P08235 1-984): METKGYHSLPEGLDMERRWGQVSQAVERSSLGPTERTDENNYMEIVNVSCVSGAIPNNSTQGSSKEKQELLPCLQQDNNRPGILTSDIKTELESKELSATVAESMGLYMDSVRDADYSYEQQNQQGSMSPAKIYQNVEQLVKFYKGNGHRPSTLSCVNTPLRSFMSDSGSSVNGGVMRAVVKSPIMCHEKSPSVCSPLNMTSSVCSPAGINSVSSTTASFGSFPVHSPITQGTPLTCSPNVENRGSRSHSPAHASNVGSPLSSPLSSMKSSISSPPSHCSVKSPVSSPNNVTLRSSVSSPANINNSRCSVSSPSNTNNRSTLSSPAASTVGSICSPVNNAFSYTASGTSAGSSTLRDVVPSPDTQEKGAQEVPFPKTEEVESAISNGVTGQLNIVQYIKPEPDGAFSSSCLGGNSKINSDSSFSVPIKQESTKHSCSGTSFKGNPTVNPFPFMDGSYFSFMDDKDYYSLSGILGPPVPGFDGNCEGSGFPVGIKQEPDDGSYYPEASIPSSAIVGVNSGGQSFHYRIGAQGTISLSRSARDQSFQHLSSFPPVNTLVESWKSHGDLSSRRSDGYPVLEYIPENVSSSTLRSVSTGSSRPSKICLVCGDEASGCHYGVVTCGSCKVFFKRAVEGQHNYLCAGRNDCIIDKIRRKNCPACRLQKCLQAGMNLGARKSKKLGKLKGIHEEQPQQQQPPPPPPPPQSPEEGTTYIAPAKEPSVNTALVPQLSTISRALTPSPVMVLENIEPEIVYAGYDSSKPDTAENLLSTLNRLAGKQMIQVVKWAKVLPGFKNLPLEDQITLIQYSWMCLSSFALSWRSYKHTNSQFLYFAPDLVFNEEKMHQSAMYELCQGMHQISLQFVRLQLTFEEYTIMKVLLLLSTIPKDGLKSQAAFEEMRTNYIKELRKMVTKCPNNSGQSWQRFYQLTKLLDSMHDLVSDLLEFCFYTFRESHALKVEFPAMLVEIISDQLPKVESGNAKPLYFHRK
Procedure: Using cytosol from progesterone receptor-expressing insect cells (Hi5), competitive binding to the progesterone receptor was determined from the ability to displace ^3H-progesterone as reference substance from the receptor.
2. Mineralocorticoid Receptor Binding Test:
The test was carried out as in 1, with the following modifications: cytosol from mineralocorticoid receptor-expressing insect cells (Hi5) was used, and the reference substance was ^3H-aldosterone.

Compound: CC[C@]12CC[C@H]3[C@@H]([C@H]4C[C@H]4C4=CC(=O)CC[C@@H]43)[C@@H]1[C@@H]1C[C@@H]1[C@@]21C=CC(=O)O1 [Example 1, 6β,7β;15β,16β-Bismethylene-17β-hydroxy-18-methyl-19-nor-17α-pregna-4,20(Z)-dien-3-one-21-carboxylic acid γ-lactone]
- Androgen receptor Competition factor [1]: 30.6
- Mineralocorticoid receptor (MR) Competition factor [2]: 1.6

Compound: CC[C@]12CC[C@H]3[C@@H]([C@@H]4C[C@@H]4C4=CC(=O)CC[C@@H]43)[C@@H]1[C@@H]1C[C@@H]1[C@@]21C=CC(=O)O1 [Example 2, 6α,7α;15β,16β-Bismethylene-17β-hydroxy-18-methyl-19-nor-17α-pregna-4,20(Z)-dien-3-one-21-carboxylic acid γ-lactone]
- Androgen receptor Competition factor [1]: 49.6
- Mineralocorticoid receptor (MR) Competition factor [2]: 4.4

Compound: CC[C@]12CC[C@H]3[C@@H](C=CC4=CC(=O)CC[C@@H]43)[C@@H]1[C@@H]1C[C@@H]1[C@@]21C=CC(=O)O1 [Example 3, 17β-Hydroxy-18-methyl-15β,16β-methylene-19-nor-17α-pregna-4,6,20(Z)-trien-3-one-21-carboxylic acid γ-lactone]
- Androgen receptor Competition factor [1]: 62.9
- Mineralocorticoid receptor (MR) Competition factor [2]: 1.5

Compound: CC[C@]12CC[C@H]3[C@H]([C@@H]1[C@@H]1C[C@@H]1[C@@]21C=CC(=O)O1)[C@H](C)CC1=CC(=O)CC[C@@H]13 [Example 4A, 7α,18-Bismethyl-17β-hydroxy-15β,16β-methylene-19-nor-17α-pregna-4,20(Z)-dien-3-one-21-carboxylic acid γ-lactone]
- Androgen receptor Competition factor [1]: 2.6
- Mineralocorticoid receptor (MR) Competition factor [2]: 0.6

Compound: CC[C@@H]1CC2=CC(=O)CC[C@@H]2[C@H]2CC[C@@]3(CC)[C@@H]([C@@H]4C[C@@H]4[C@@]34C=CC(=O)O4)[C@H]12 [Example 5A, 17β-Hydroxy-7α-ethyl-18-methyl-15β,16β-methylene-19-nor-17α-pregna-4,20(Z)-dien-3-one-21-carboxylic acid γ-lactone]
- Androgen receptor Competition factor [1]: 4.1
- Mineralocorticoid receptor (MR) Competition factor [2]: 1.0

Compound: C=C[C@@H]1CC2=CC(=O)CC[C@@H]2[C@H]2CC[C@@]3(CC)[C@@H]([C@@H]4C[C@@H]4[C@@]34C=CC(=O)O4)[C@@H]21 [Example 6A, 17β-Hydroxy-7α-vinyl-18-methyl-15β,16β-methylene-19-nor-17α-pregna-4,20(Z)-dien-3-one-21-carboxylic acid γ-lactone]
- Androgen receptor Competition factor [1]: 1.7
- Mineralocorticoid receptor (MR) Competition factor [2]: 1.5

Compound: CC[C@]12CC[C@H]3[C@H]([C@@H]1[C@@H]1C[C@@H]1[C@@]21C=CC(=O)O1)[C@H](C1CC1)CC1=CC(=O)CC[C@@H]13 [Example 7A, 17β-Hydroxy-7α-cyclopropyl-18-methyl-15β,16β-methylene-19-nor-17α-pregna-4,20(Z)-dien-3-one-21-carboxylic acid γ-lactone]
- Androgen receptor Competition factor [1]: 5.2
- Mineralocorticoid receptor (MR) Competition factor [2]: 4.7

Compound: CC[C@]12CC[C@H]3[C@@H]([C@H]4C[C@H]4C4=C(Cl)C(=O)CC[C@@H]43)[C@@H]1[C@@H]1C[C@@H]1[C@@]21C=CC(=O)O1 [Example 8, 6β,7β;15β,16β-Bismethylene-4-chloro-17β-hydroxy-18-methyl-19-nor-17α-pregna-4,20(Z)-dien-3-one-21-carboxylic acid γ-lactone]
- Androgen receptor Competition factor [1]: 240.0
- Mineralocorticoid receptor (MR) Competition factor [2]: 29.0

Compound: CC[C@]12CC[C@H]3[C@@H](CCC4=CC(=O)CC[C@@H]43)[C@@H]1[C@@H]1C[C@@H]1[C@@]21C=CC(=O)O1 [Example 9, 17β-Hydroxy-18-methyl-15β,16β-methylene-19-nor-17α-pregna-4,20(Z) dien-3-one-21-carboxylic acid γ-lactone]
- Androgen receptor Competition factor [1]: 5.6
- Mineralocorticoid receptor (MR) Competition factor [2]: 1.1

Compound: CC[C@]12CC[C@H]3[C@@H](C[C@@H](CO)C4=CC(=O)CC[C@@H]43)[C@@H]1[C@@H]1C[C@@H]1[C@@]21C=CC(=O)O1 [Example 10, 17β-Hydroxy-6β-hydroxymethylene-18-methyl-15β,16β-methylene-19-nor-17α-pregna-4,20(Z)-dien-3-one-21-carboxylic acid γ-lactone]
- Androgen receptor Competition factor [1]: 1000.0
- Mineralocorticoid receptor (MR) Competition factor [2]: 2.7

Compound: C[C@]12CC[C@H]3[C@@H](CCC4=CC(=O)CC[C@@H]43)[C@@H]1[C@H]1C[C@H]1[C@@]21C=CC(=O)O1 [Example 12, 17β-Hydroxy-15α,16α-methylene-19-nor-17α-pregna-4,20(Z)-dien-3-one-21-carboxylic acid γ-lactone]
- Androgen receptor Competition factor [1]: 16.5
- Mineralocorticoid receptor (MR) Competition factor [2]: 2.9

Compound: C[C@]12CC[C@H]3[C@@H](C=CC4=CC(=O)CC[C@@H]43)[C@@H]1[C@H]1C[C@H]1[C@@]21C=CC(=O)O1 [Example 13, 17β-Hydroxy-15α,16α-methylene-19-nor-17α-pregna-4,6,20(Z)-trien-3-one-21-carboxylic acid γ-lactone]
- Androgen receptor Competition factor [1]: 163.2
- Mineralocorticoid receptor (MR) Competition factor [2]: 1.6

Compound: C[C@@H]1CC2=CC(=O)CC[C@@H]2[C@H]2CC[C@@]3(C)[C@@H]([C@H]4C[C@H]4[C@@]34C=CC(=O)O4)[C@@H]21 [Example 14A, 17β-Hydroxy-7α-methyl-15α,16α-methylene-19-nor-17α-pregna-4,20(Z)-dien-3-one-21-carboxylic acid γ-lactone]
- Androgen receptor Competition factor [1]: 2.3
- Mineralocorticoid receptor (MR) Competition factor [2]: 1.3

Compound: CC[C@@H]1CC2=CC(=O)CC[C@@H]2[C@H]2CC[C@@]3(C)[C@@H]([C@H]4C[C@H]4[C@@]34C=CC(=O)O4)[C@H]12 [Example 15A, 17β-Hydroxy-7α-ethyl-15α,16α-methylene-19-nor-17α-pregna-4,20(Z)-dien-3-one-21-carboxylic acid γ-lactone]
- Androgen receptor Competition factor [1]: 2.2
- Mineralocorticoid receptor (MR) Competition factor [2]: 0.8

Compound: C[C@]12CC[C@H]3[C@@H](C[C@@H](CO)C4=CC(=O)CC[C@@H]43)[C@@H]1[C@@H]1C[C@@H]1[C@@]21C=CC(=O)O1 [Example 21, 17β-Hydroxy-6β-hydroxymethylene-15β,16β-methylene-19-nor-17α-pregna-4,20(Z)-dien-3-one-21-carboxylic acid γ-lactone]
- Androgen receptor Competition factor [1]: 1000.0
